According to patent publication US4845109A, “Alkoxy-and phenoxy alkyl esters of 2,6-dimethyl-4-(2-difluoromethoxyphenyl)-1,4-dihydropyridine-3,5-carboxy lic acid” (priority 1988, dated 1989):

Experiments:
cerebral vessels = conditions: background art; cited from earlier work
in vivo = conditions: mouse, ip
Description: Acute toxicity of the compounds involved compared
with the known drugs tested on albino mice
(intraperitoneal administration)

femoral artery = assay: Blood circulation rate in femoral artery of narcotized dogs; type: in vivo; conditions: intravenous
coronary artery = assay: Blood circulation rate in coronary artery of narcotized dogs; type: in vivo; conditions: intravenous
carotid artery = assay: Blood circulation rate in carotid artery of narcotized dogs; type: in vivo; conditions: intravenous
arterial pressure [1] = assay: Acute experiments on narcotized cats: reduction of arterial pressure (intravenous); type: in vivo; conditions: for ED30: Felis catus, read-out: ED30 (average dose that reduces the arterial pressure by 30%)
Description: In acute experiments on cats narcotized with glucochloralose and urethane (90 and 200 mg/kg, respectively, administered intraperitoneally), there were recorded arterial pressure from the common carotid artery, respiration and an ECG with standard lead II. The compounds under study were administered intravenously as a dimethylacetamide solution.
(§1) Average doses of the compounds under study that
(§2) reduce the arterial pressure in narcotized animals by 30%

vertebral artery = assay: Blood circulation rate in vertebral artery of narcotized dogs; type: in vivo; conditions: intravenous
[2] = system: systolic arterial pressure; assay: Hypotensive effect in spontaneously hypertensive rats (SHR), oral; type: in vivo; conditions: for Hypotensive effect compared with Niphedipin / Hypotensive potency: 3 and 10 mg/kg
[3] = background art, occasionally; cited from earlier work
arterial pressure [4] = assay: Hypotensive activity in narcotized rats: reduction of arterial pressure; type: in vivo; conditions: Rattus norvegicus; narcotized rats (urethane); read-out: ED30 (average dose that reduces the arterial pressure by 30%)
Description: as §1, §2

[5] = system: arteries supplying blood to the heart and brain; assay: Systolic arterial pressure and blood circulation in arteries of heart and brain of narcotized dogs; type: in vivo; conditions: intravenous

## COC(=O)C1=C(C)NC(C)=C(C(=O)OCCN(C)Cc2ccccc2)C1c1cccc([N+](=O)[O-])c1.Cl (stereo not drawn) [Nicardipin, 2,6-dimethyl-3-methoxy-carbonyl-4-(3-nitrophenyl)-5-[2(N-benzyl-N-methylamino)ethoxycarbonyl]-1,4-dihydropyridine hydrochloride, reference compound]
Cerebral vessels
  Activity: inadequate activity
  Vasodilation activity: vasodilation activity preponderantly towards cerebral vessels
In vivo
  LD50: 225 mg/kg
Femoral artery; 0.001 mg/kg
  Blood circulation rate in femoral artery, percentage increase: 10%
  Blood circulation rate in femoral artery, persistence: 5 min
Femoral artery; 0.002 mg/kg
  Blood circulation rate in femoral artery, percentage increase: 26%
  Blood circulation rate in femoral artery, persistence: 10 min
Coronary artery; 0.001 mg/kg
  Blood circulation rate in coronary artery, percentage increase: 12%
  Blood circulation rate in coronary artery, persistence: 5 min
Coronary artery; 0.002 mg/kg
  Blood circulation rate in coronary artery, percentage increase: 30%
  Blood circulation rate in coronary artery, persistence: 12 min
Carotid artery; 0.001 mg/kg
  Blood circulation rate in carotid artery, percentage increase: 14%
  Blood circulation rate in carotid artery, persistence: 6 min
Carotid artery; 0.002 mg/kg
  Blood circulation rate in carotid artery, percentage increase: 60%
  Blood circulation rate in carotid artery, persistence: 12 min
Arterial pressure [1]
  Persistence of hypotensive effect: 8 min
  ED30: 0.025 mg/kg
Vertebral artery; 0.001 mg/kg
  Blood circulation rate in vertebral artery, percentage increase: 14%
  Blood circulation rate in vertebral artery, persistence: 6 min
Vertebral artery; 0.002 mg/kg
  Blood circulation rate in vertebral artery, percentage increase: 40%
  Blood circulation rate in vertebral artery, persistence: 20 min

## COC(=O)C1=C(C)NC(C)=C(C(=O)OC)C1c1ccccc1[N+](=O)[O-] [Niphedipin, 2,6-dimethyl-3,5-dimethoxycarbonyl-4-(2-nitrophenyl)-1,4-dihydropyrine, reference compound]
[2]
  Tachycardia: tachycardia
[3]
  Side effects: dizziness and nausea
Arterial pressure [1]
  Persistence of hypotensive effect: 6 min
  ED30: 0.02 mg/kg

## CCOCCOC(=O)C1=C(C)NC(C)=C(C(=O)OCCOCC)C1c1ccccc1OC(F)F [R = C2 H4 OC2 H5, 2,6-dimethyl-3,5-bis-(2-ethoxyethoxycarbonyl)-4-(2-difluoromethoxyphenyl)-1,4-dihydropyridine]
In vivo
  LD50: 2200 mg/kg
[2]
  Tachycardia: not causative of tachycardia
  Hypotensive effect compared with Niphedipin: does not differ substantially
  Hypotensive potency: most markedly pronounced hypotensive potency
Arterial pressure [1]
  Persistence of hypotensive effect: 6 min
  ED30: 0.01 mg/kg
Arterial pressure [4]
  ED30: 0.018 mg/kg

## CCCOCCOC(=O)C1=C(C)NC(C)=C(C(=O)OCCOCCC)C1c1ccccc1OC(F)F [R = C2 H4 OC3 H7, 2,6-dimethyl-3,5-bis-(2-propoxyethoxycarbonyl)-4-(2-difluoromethoxyphenyl)-1,4-dihydropyridine]
In vivo
  LD50: 450 mg/kg
Femoral artery; 0.0005 mg/kg
  Blood circulation rate in femoral artery, percentage increase: 0%
Femoral artery; 0.001 mg/kg
  Blood circulation rate in femoral artery, percentage increase: 10%
  Blood circulation rate in femoral artery, persistence: 8 min
Femoral artery; 0.002 mg/kg
  Blood circulation rate in femoral artery, percentage increase: 25%
  Blood circulation rate in femoral artery, persistence: 10 min
Coronary artery; 0.0005 mg/kg
  Blood circulation rate in coronary artery, percentage increase: 10%
  Blood circulation rate in coronary artery, persistence: 5 min
Coronary artery; 0.001 mg/kg
  Blood circulation rate in coronary artery, percentage increase: 30%
  Blood circulation rate in coronary artery, persistence: 8 min
Coronary artery; 0.002 mg/kg
  Blood circulation rate in coronary artery, percentage increase: 50%
  Blood circulation rate in coronary artery, persistence: 12 min
Carotid artery; 0.0005 mg/kg
  Blood circulation rate in carotid artery, percentage increase: 17%
  Blood circulation rate in carotid artery, persistence: 5 min
Carotid artery; 0.001 mg/kg
  Blood circulation rate in carotid artery, percentage increase: 60%
  Blood circulation rate in carotid artery, persistence: 15 min
Carotid artery; 0.002 mg/kg
  Blood circulation rate in carotid artery, percentage increase: 100%
  Blood circulation rate in carotid artery, persistence: 20 min
[5]
  Intensity and duration of effect on blood circulation rate compared with Nicardipin: much more potent
[2]
  Hypotensive effect compared with Niphedipin: does not differ substantially
  Hypotensive potency: most markedly pronounced hypotensive potency
Arterial pressure [1]
  Persistence of hypotensive effect: 7 min
  ED30: 0.0045 mg/kg
Arterial pressure [4]
  ED30: 0.008 mg/kg
Vertebral artery; 0.0005 mg/kg
  Blood circulation rate in vertebral artery, percentage increase: 20%
  Blood circulation rate in vertebral artery, persistence: 8 min
Vertebral artery; 0.001 mg/kg
  Blood circulation rate in vertebral artery, percentage increase: 90%
  Blood circulation rate in vertebral artery, persistence: 18 min
Vertebral artery; 0.002 mg/kg
  Blood circulation rate in vertebral artery, percentage increase: 110%
  Blood circulation rate in vertebral artery, persistence: 20 min

## CC1=C(C(=O)OCCOc2ccccc2)C(c2ccccc2OC(F)F)C(C(=O)OCCOc2ccccc2)=C(C)N1 [R = C2 H4 OC6 H5, 2,6-dimethyl-3,5-bis-(2phenoxyethoxycarbonyl)-4-(2difluoromethoxyphenyl)-1,4-dihydropyridine]
In vivo
  LD50: 790 mg/kg
[2]
  Hypotensive effect compared with Niphedipin: does not differ substantially
  Hypotensive potency: most markedly pronounced hypotensive potency
Arterial pressure [1]
  Persistence of hypotensive effect: 7 min
  ED30: 0.02 mg/kg
Arterial pressure [4]
  ED30: 0.03 mg/kg

## COCCOC(=O)C1=C(C)NC(C)=C(C(=O)OCCOC)C1c1ccccc1OC(F)F [R = C2 H4 OCH3, 2,6-dimethyl-3,5-bis-(2-methoxyethoxycarbonyl)-4-(2-difluoromethoxyphenyl)-1,4-dihydropyridine]
In vivo
  LD50: 1130 mg/kg
Arterial pressure [1]
  Persistence of hypotensive effect: 3 min
  ED30: 0.045 mg/kg
Arterial pressure [4]
  ED30: 0.04 mg/kg

## COCC(C)OC(=O)C1=C(C)NC(C)=C(C(=O)OC(C)COC)C1c1ccccc1OC(F)F (stereo not drawn) [R = CH(CH3)CH2 OCH3, 2,6-dimethyl-3,5-bis-[(1-methyl-2-methoxy)-ethoxycarbonyl]-4-(2-difluoromethoxyphenyl)-1,4-dihydropyridine]
In vivo
  LD50: 2500 mg/kg
Arterial pressure [1]
  Persistence of hypotensive effect: 10 min
  ED30: 0.038 mg/kg
